Experimental data taken from patent US10551389B2, “Target binding molecules identified by kinetic target-guided synthesis” (UNIVERSITY OF SOUTH FLORIDA, priority 2013, dated 2020).
pIC50: −log10 of the molar value.

What was measured:
Bcl-XL = Bcl-XL (Homo sapiens, UniProt Q07817); assay: Inhibition of Bcl-XL (disruption of Bcl-XL/Bim interaction); assay type: binding; details: for % Inhibition (25 μM) Bcl-XL / inhibition at 25 µM: compound at 25 μM; for % Inhibition (50 μM) Bcl-XL / inhibition at 50 µM: compound at 50 μM
Bcl-XL, sequence (Q07817 whole entry, species assumed): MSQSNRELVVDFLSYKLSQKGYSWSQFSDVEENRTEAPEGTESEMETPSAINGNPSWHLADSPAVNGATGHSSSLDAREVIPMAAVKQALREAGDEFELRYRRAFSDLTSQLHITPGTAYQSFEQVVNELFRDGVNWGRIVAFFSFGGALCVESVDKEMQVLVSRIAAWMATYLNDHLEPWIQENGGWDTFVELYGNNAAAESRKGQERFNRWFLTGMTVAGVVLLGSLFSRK
Procedure: (§1) In a subsequent study, a structurally diverse library of forty five thio acids and thirty eight sulfonyl azides (identified above) was screened in parallel against Mcl-1 and Bcl-XL using the above mentioned approach. Several potential hit combinations were identified (Table 3). All of these kinetic TGS hit compounds were synthesized (identified above and in Table 3). All the reactions were performed at 20-30 mg scale. The 9-fluorenylmethyl thioester was placed in a 2.0 mL vial and 3.5% DBU/dry DMF solution was added (per 1 μmol of thioester, 4.7 μL, of 3.5% DBU/dry DMF solution was added) and the reaction was stirred for one minute. Then the sulfonylazide (1 eq to thioester) was added to the reaction mixture and immediately bubbling was observed. After the reaction was completed (approximately one minute, monitored by LC-MS) water (200 μL) was added and the pH was adjusted to 7.0 using 1M HCl solution. The reaction mixture was extracted with DCM until there is no product in the aqueous layer (checked by TLC or LC-MS). The product was purified by flash chromatography. Testing of these acylsulfonamides has shown that the hit compounds disrupt the Bcl-XL/Bim or Mcl-1/Bim interaction (Table 3).

Mcl-1 = Mcl-1 (Homo sapiens, UniProt Q07820); assay: Inhibition of Mcl-1 (disruption of Mcl-1/Bim interaction); assay type: binding; details: for % Inhibition (25 μM) Mcl-1 / inhibition at 25 µM: compound at 25 μM; for % Inhibition (50 μM) Mcl-1 / inhibition at 50 µM: compound at 50 μM
Mcl-1, sequence (Q07820 whole entry, species assumed): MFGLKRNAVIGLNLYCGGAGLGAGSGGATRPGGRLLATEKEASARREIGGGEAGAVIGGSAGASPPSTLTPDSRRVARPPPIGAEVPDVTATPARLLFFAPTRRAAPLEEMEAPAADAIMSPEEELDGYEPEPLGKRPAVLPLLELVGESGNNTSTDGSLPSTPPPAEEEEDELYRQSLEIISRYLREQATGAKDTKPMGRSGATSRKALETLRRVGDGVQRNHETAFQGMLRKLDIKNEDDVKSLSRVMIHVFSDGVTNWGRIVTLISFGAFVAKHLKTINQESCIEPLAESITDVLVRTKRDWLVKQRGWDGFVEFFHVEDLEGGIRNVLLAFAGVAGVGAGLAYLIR
Procedure: as §1

SMILES	% Inhibition (25 μM) Bcl-XL (Bcl-XL)	% Inhibition (50 μM) Bcl-XL (Bcl-XL)	% Inhibition (25 μM) Mcl-1 (Mcl-1)	% Inhibition (50 μM) Mcl-1 (Mcl-1)	further results
Cn1cc(C(=O)C2CCCCC2)c2cc(C(=O)NS(=O)(=O)c3ccc(COc4ccc5c(=O)cc(-c6ccccc6)oc5c4)cc3)ccc21 [SZ14TA40]	27.8%	47.9%	68.5%	93.1%	
COc1cc2c(cc1OC)C(c1ccccc1)N(Cc1ccc(S(=O)(=O)NC(=O)c3ccc(Cc4ccc(OC)c(OC)c4OC)cc3)cc1)CC2 (centres unmarked) [SZ8TA24]			43.6%	79.2%	
CN(CCc1ccccc1)Cc1ccc(S(=O)(=O)NC(=O)c2ccc(C(c3c[nH]c4ccccc34)c3c[nH]c4ccccc34)cc2)cc1 [SZ2TA31]	14.9%	9.4%	14.2%	16.2%	
COc1cccc(CN(CCSc2ccccc2)Cc2ccc(S(=O)(=O)NC(=O)c3ccc(-c4ccc(F)cc4)cc3)cc2)c1 [SZ17TA14]	16.6%	2.8%	73.9%	46.7%	
O=C(CC1Sc2ccccc2NC1=O)NS(=O)(=O)c1ccc(CN(CCSc2ccccc2)Cc2c(F)cccc2Cl)cc1 (centres unmarked) [SZ15TA34]	19.6%	28.6%	47.4%	82.8%	
COc1cccc(CN(CCSc2ccccc2)Cc2ccc(S(=O)(=O)NC(=O)c3cccc4ccccc34)cc2)c1 [SZ17TA7]					inhibition at 50 µM (Bcl-XL): 66.5%; pIC50 (Mcl-1): 4.70
[N-]=[N+]=NS(=O)(=O)c1ccc(CN(CCSc2ccccc2)Cc2ccc(S(=O)(=O)NC(=O)c3ccc(-c4ccccn4)cc3)cc2)cc1 [SZ9TA25]					inhibition at 25 µM (Bcl-XL): 18.6%; inhibition at 50 µM (Bcl-XL): < 2%; inhibition at 25 µM (Mcl-1): 43.1%
COc1cccc(CN(CCSc2ccccc2)Cc2ccc(S(=O)(=O)NC(=O)c3ccc4c(ccn4Cc4ccc(C(F)(F)F)cc4C(F)(F)F)c3)cc2)c1 [SZ17TA30]	<2.0%	<2.0%	18.0%	15.8%	
O=C(Cn1c2ccccc2c2ccccc21)NS(=O)(=O)c1ccc(CN(CCSc2ccccc2)Cc2c(F)cccc2Cl)cc1 [SZ15TA15]	10.1%	8.8%	42.2%	53.6%	
O=C(NS(=O)(=O)c1ccc(CN(CCSc2ccccc2)Cc2ccc3c(c2)OCO3)cc1)c1ccc(OC(F)(F)F)cc1 [SZ31TA8]					inhibition at 25 µM (Bcl-XL): 9.5%; pIC50 (Mcl-1): 5.23; inhibition at 25 µM (Mcl-1): 61.2%; inhibition at 50 µM (Mcl-1): > 99%
O=C(NS(=O)(=O)c1ccc(CN(CCSc2ccccc2)Cc2c(F)cccc2Cl)cc1)c1ccccc1 [SZ15TA1]					inhibition at 50 µM (Bcl-XL): 53.4%; pIC50 (Mcl-1): 5.01
O=C(NS(=O)(=O)c1ccc(CN2CCN(c3ccccc3)CC2)cc1)c1ccc(-c2ccc(F)cc2)cc1 [SZ1TA14]	9.6%	<2.0%	9.0%	24.4%	
Cn1cc(C(=O)c2cccs2)c2cc(C(=O)NS(=O)(=O)CCN(CCSc3ccccc3)Cc3ccc4c(c3)OCO4)ccc21 [SZ28TA45]	25.7%	34.6%	46.8%	54.0%	
COc1cc2c(cc1OC)C(c1ccccc1)N(Cc1ccc(S(=O)(=O)NC(=O)c3ccc(N4CCC(C)(C)CC4)cc3)cc1)CC2 (centres unmarked) [SZ8TA2]			14.8%	24.9%	
CCOc1ccc(-c2ccc3c(c2)c(C(=O)NS(=O)(=O)c2ccc(CNc4cccc([N+](=O)[O-])c4)cc2)cn3C)cc1F [SZ12TA23]			6.1%	21.5%	
COc1cc(OC)cc(C(=O)NS(=O)(=O)c2ccc(CN(CCSc3ccccc3)Cc3ccc(S(=O)(=O)N=[N+]=[N-])cc3)cc2)c1 [SZ9TA5]					pIC50 (Bcl-XL): 4.44; inhibition at 25 µM (Bcl-XL): 8.6%; inhibition at 50 µM (Bcl-XL): 60.3%; pIC50 (Mcl-1): 5.09; inhibition at 25 µM (Mcl-1): 50%; inhibition at 50 µM (Mcl-1): > 99%
COc1ccc(Cc2ccc(C(=O)NS(=O)(=O)c3ccc(CN(CCSc4ccccc4)Cc4c(F)cccc4Cl)cc3)cc2)c(OC)c1OC [SZ15TA24]	14.7%	18.9%	54.4%	70.8%	
O=C(NS(=O)(=O)c1ccc(CN(CCSc2ccccc2)Cc2c(F)cccc2Cl)cc1)c1ccc(OC(F)(F)F)cc1 [SZ15TA8]	3.4%	12.4%	<2.0%	96.5%	pIC50 (Bcl-XL): 4.33; pIC50 (Mcl-1): 5.12
Cc1nc(-c2ccccc2)sc1C(=O)NS(=O)(=O)c1ccc(CN(CCSc2ccccc2)Cc2c(F)cccc2Cl)cc1 [SZ15TA3]					inhibition at 50 µM (Bcl-XL): 43%; pIC50 (Mcl-1): 5.24
CCOc1ccc(-c2ccc3c(c2)c(C(=O)NS(=O)(=O)c2ccc(CN4CCN(c5ccccc5)CC4)cc2)cn3C)cc1F [SZ1TA23]			18.7%	21.5%	

SMILES	% Inhibition (25 μM) Bcl-XL (Bcl-XL)	% Inhibition (50 μM) Bcl-XL (Bcl-XL)	% Inhibition (25 μM) Mcl-1 (Mcl-1)	% Inhibition (50 μM) Mcl-1 (Mcl-1)	further results
COc1cccc(CN(CCSc2ccccc2)Cc2ccc(S(=O)(=O)NC(=O)c3ccc(-c4ccccn4)cc3)cc2)c1 [SZ17TA25]	38.6%	54.5%	64.9%	93.6%	
COc1cccc(CN(CCSc2ccccc2)Cc2ccc(S(=O)(=O)NC(=O)c3ccc(OC(F)(F)F)cc3)cc2)c1 [SZ17TA8]					inhibition at 25 µM (Bcl-XL): 4.1%; inhibition at 50 µM (Bcl-XL): < 2%; pIC50 (Mcl-1): 5.08; inhibition at 25 µM (Mcl-1): 60.5%; inhibition at 50 µM (Mcl-1): 100%
CN(C)C(=O)c1cccc(-c2ccc(S(=O)(=O)NC(=O)c3ccc(CN4C(=O)C(c5ccc(F)cc5F)=C(c5ccc(F)cc5F)C4=O)cc3)cc2)c1 [SZ34TA42]					inhibition at 25 µM (Bcl-XL): 19.1%; inhibition at 50 µM (Bcl-XL): 58%; pIC50 (Mcl-1): 4.53; inhibition at 25 µM (Mcl-1): 49%; inhibition at 50 µM (Mcl-1): > 99%
CCOc1ccc(-c2ccc3c(c2)c(C(=O)NS(=O)(=O)c2ccc(CNCCSc4ccccc4)cc2)cn3C)cc1F [SZ6TA23]			<2.0%	<2.0%	
COc1cccc(CN(CCSc2ccccc2)Cc2ccc(S(=O)(=O)NC(=O)CCCN3C(=O)C(c4ccc(F)cc4F)=C(c4ccc(F)cc4F)C3=O)cc2)c1 [SZ17TA20]	<2.0%	<2.0%	7.2%	12.4%	
CC1(C)CCN(c2ccc(C(=O)NS(=O)(=O)c3ccc(CNc4cccc([N+](=O)[O-])c4)cc3)cc2)CC1 [SZ12TA2]			7.1%	54.1%	
O=C(NS(=O)(=O)c1ccc(-c2ccc(Oc3ccccc3)cc2)cc1)c1ccc(CCc2ccccn2)cc1 [SZ35TA17]			18.8%	89.2%	
COc1ccc(Cc2ccc(C(=O)NS(=O)(=O)c3ccc(-c4ccc(Oc5ccccc5)cc4)cc3)cc2)c(OC)c1OC [SZ35TA24]			72.3%	76.4%	
NS(=O)(=O)c1ccc(CN(CCSc2ccccc2)Cc2ccc(S(=O)(=O)NC(=O)c3ccc4oc(-c5ccccc5)cc4c3)cc2)cc1 [SZ10TA41]			2.8%	12.4%	
COc1ccccc1-c1ccc(C(=O)NS(=O)(=O)c2ccc(NCCSc3ccccc3)c([N+](=O)[O-])c2)cc1 [SZ4TA21]			44.7%	80.6%	
O=C(NS(=O)(=O)CCN1CCC(Cc2ccccc2)CC1)c1ccc2c(ccn2Cc2ccc(C(F)(F)F)cc2C(F)(F)F)c1 [SZ24TA30]			18.1%	11.4%	
COc1cccc(CN(CCSc2ccccc2)Cc2ccc(S(=O)(=O)NC(=O)c3ccc(Cc4ccc(OC)c(OC)c4OC)cc3)cc2)c1 [SZ17TA24]			65.1%	74.1%	
COc1ccccc1-c1ccc(C(=O)NS(=O)(=O)c2ccc(-c3ccc(C(F)(F)F)cc3)cc2)cc1 [SZ16TA21]			26.0%	80.9%	
O=C(NS(=O)(=O)c1ccc(CN(CCSc2ccccc2)Cc2c(F)cccc2Cl)cc1)c1cccc2ccccc12 [SZ15TA7]					pIC50 (Mcl-1): 4.81
O=C(NS(=O)(=O)c1ccc(-c2ccc(Oc3ccccc3)cc2)cc1)c1cccc2ccccc12 [SZ35TA7]			28.6%	87.8%	
COc1ccccc1-c1ccc(C(=O)NS(=O)(=O)c2ccc(CN(CCSc3ccccc3)Cc3ccc(S(N)(=O)=O)cc3)cc2)cc1 [SZ10TA21]			52.3%	57.3%	
CC(C)(C)c1ccc(-c2ccc(S(=O)(=O)NC(=O)c3ccc(-c4ccccn4)cc3)cc2)cc1 [SZ11TA25]					inhibition at 25 µM (Mcl-1): 20.1%; inhibition at 50 µM (Mcl-1): 65.8%
CC1(C)CCN(c2ccc(C(=O)NS(=O)(=O)CCN3CCc4ccccc4C3)cc2)CC1 [SZ23TA2]			4.5%	<2.0%	
Cc1nc(-c2ccccc2)sc1C(=O)NS(=O)(=O)c1ccc(-c2ccc(Oc3ccccc3)cc2)cc1 [SZ35TA3]			18.8%	87.2%	
